pEC50, pKd: −log10 of the molar value. Bridge positions count the residues as written; N and C are the ends. Peptide text beside a SMILES is read from it.
Tests used:
NbALFA = experiment: SPR measurements of NbALFA binding (Biacore T200, multi cycle kinetics, 1:1 binding model); details: for pKd / ka / kd: 25° C., HBS-EP+ buffer, biotinylated NbALFA captured
Method: Affinity measurements were performed using a Biacore T200 (GE Healthcare, Biacore T200 control Software 3.2). […] A freshly docked Biotin CAPture chip was rehydrated overnight in the instrument (standby mode). […] The immobilization of the Nanobody was done for 180 s at 10 μL/min on FC2 followed by quenching of unbound streptavidin by 0.1 mM biocytin for 60 s and 30 μL/min on both flow cells. […] After each cycle, the surface was regenerated for 120 s with 10 μL/min using regeneration solution. All measurements were performed at 25° C. using HBS-EP+ buffer (Cytiva Europe, Cat. no BR100669). The control responses from FC1 were subtracted by the sample measurement in FC2 (FC2−FC1) followed by subtraction of the 0 nM blank injection. Resulting binding curves of this multi cycle kinetic experiment were fitted using the Biacore T200 Evaluation Software 3.2 and a 1:1 binding model.

[1] = Plasma stability, human plasma; details: for Conc. (% of T0) / Mean (compound concentration) / Tube 2 (compound concentration) / Tube 3 (compound concentration) / Tube 1 (compound concentration) / half-life: human plasma, 37° C.; for remaining at 2 h, 10 µM / remaining at 6 h, 10 µM: human Li-heparin plasma; for half-life: plasma
Method: Plasma stability measurements were performed by spiking 5 μl of a 1 mM compound stock solution in DMSO into 495 μl of human or mouse Li-heparin plasma (Innovative Research, Cat. No, IPLALIH5OML (human) and IMS-BC-N (Balb C mouse). The spiked plasma was distributed in 50 μl aliquots into capped PCR tubes for incubation at 37° C. At each time point (0, 2, 6, 24 hours*) 3*aliquots were withdrawn from the incubator. Enzymatic reactions were quenched directly after withdrawal by adding 100 μl of acetonitrile/formic acid=99/1 (v/v). Quenched samples were stored at ambient temperature until the end of the incubation period (24 hrs*). After centrifugation, the supernatant was transferred into fresh vials and analyzed by LC-MS/MS in ESI positive mode (Waters ACQUITY UPLC I-Class System (SM-FTN) with Xevo TQD triple quadrupole mass spectrometer with control software Waters MassLynx). […] Values below the limit of quantification (0.1 μM) and outliers of triplicate results were excluded from further calculations. An exponential regression curve was fitted onto the concentration results. Half-life times were calculated from the slope of the regression curve (t1/2=ln(2)/slope).
For some samples, as indicated below, the incubation time was 6 hours. The 24 hour data was measured in triplicates whereas the 6 hour data was measured in duplicates.

[2] = Plasma stability, mouse plasma; details: for remaining at 2 h, 10 µM / remaining at 6 h, 10 µM / remaining at 24 h, 10 µM: Balb C, Li-heparin plasma; for remaining at 2 h, 10 µM / remaining at 6 h, 10 µM / remaining at 24 h, 10 µM / half-life: mouse; for Conc. (% of T0) / Mean (compound concentration) / Tube 2 (compound concentration) / Tube 3 (compound concentration) / Tube 1 (compound concentration) / half-life: mouse plasma, 37° C.; for half-life: plasma, incubation 24 h (triplicates) or 6 h (duplicates)
anti-ALFA VHH = experiment: binding affinity to the anti-ALFA VHH (log(agonist) vs. response, variable slope); details: for LogEC50: best-fit values, log(agonist) vs. response, variable slope; for pEC50: binding to anti-ALFA VHH
[3] = Pharmacokinetic study in mouse, intravenous bolus, plasma LC-MS/MS, non-compartmental analysis; details: for AUC(0-inf): AUC0-inf; for AUC(0-t): AUC0-t
Method: C57BL/6NRj mice were obtained from Janvier Labs, France. In this study, approximately 8-week-old female mice were used.
Prior to administration into the lateral tail vein, the body weight of the animals was determined to calculate the individual volume of the injecting compound (5 mL/kg body weight). The injection, as well as the blood sampling, were carried out under short anesthesia (0.7 L/min O2, 1.7 L/min N2O, 2% Isoflurane). Blood was sampled from the retro-orbital plexus using microhematocrit capillary (Ø 0.8 mm) and collected into K3EDTA tubes, at the time points indicated in Table 10.
The plasma was separated by centrifugation (10,000×g; 10 min; 4° C.), aliquoted into microtubes and stored at −80° C.
20 μl of each plasma sample was transferred into PCR tubes. 80 μl IS (internal standard)-solution in acetonitrile+1% FA was added for protein precipitation.
The sample tubes were sealed with pierceable cap mats and vortexed. After homogenization for 5 min in an ultrasonic bath the samples were centrifuged at 3000 rpm at ambient temperature for 15 min. 1 μl supernatant was injected into the instrument for LC-MS/MS analysis. For LC-MS/MS quantification a ExionLC™ UHPLC coupled to a QTRAP® 6500+ mass spectrometer (Sciex) was used in ESI positive mode. Parameters for mass spectrometry were listed in the tables below, Chromatographic separation was achieved on a ACQUITY UPLC BEH C18 column (Waters, 1.7 μm, 2.1×50 mm).
Compound concentrations in plasma samples were calculated using a 10-point calibration curve in plasma over a concentration range of 1 to 1000 ng/ml. QC samples of 1, 10, 100, 1000 ng/ml were analyzed before and after each dose group. Samples exceeding the upper limit of quantification (1000 ng/ml) were re-analyzed after 10-fold dilution in blank plasma. All calculations were performed in Sciex OS Version 1.7.0.36606 and MS-EXCEL®.
Pharmacokinetic parameters were calculated for both compounds using the software Kinetica (version 4.4.1, Thermo Scientific) applying a non-compartmental model (NCA).

[4] = timepoint 0 h, calibration range 0.1 to 10 μM
[5] = human, Half-life time, incubation 24 h (triplicates) or 6 h (duplicates)
[6] = in vivo, iv, 3 mg/kg, single i.v.
[7] = in vivo, iv, normalized to a dose of 1 mg/kg, given 3 mg/kg i.v.

CC(=O)N[C@@H](CO)C(=O)N[C@@H](CCCNC(=N)N)C(=O)N[C@@H](CC(C)C)C(=O)N[C@@H](CCC(=O)O)C(=O)N[C@H]1CCC(=O)NCCCC[C@@H](C(=O)N[C@@H](CCCNC(=N)N)C(=O)N[C@@H](CCCNC(=N)N)C(=O)N[C@@H](CC(C)C)C(=O)N[C@H](C(=O)N[C@@H](CCC(=O)O)C(N)=O)[C@@H](C)O)NC(=O)[C@H](CC(C)C)NC(=O)[C@H](CCC(=O)O)NC1=O [SD15192, Ac-Ser-Arg-Leu-Glu-(cyclo5)Glu-Glu-Leu-(cyclo8)Lys-Arg-Arg-Leu-Thr-Glu-NH2] (Ac-SRLEEELKRRLTE-NH2; lactam 5-8)
pKd (NbALFA): 10.26 | ka (NbALFA): 1.05e+07 M⁻¹ s⁻¹ | kd (NbALFA): 0.000577 s⁻¹ | Conc. (% of T0) ([1]; timepoint 0 h): 100.0 % of T0 | Mean (compound concentration) ([1]; timepoint 0 h): 2.56 | Tube 2 (compound concentration) ([1]; timepoint 0 h): 2.471 | Tube 3 (compound concentration) ([1]; timepoint 0 h): 2.553 | Tube 1 (compound concentration) [1, 4]: 2.667 | Mean (compound concentration) ([1]; timepoint 2 h): 1.76 | Tube 1 (compound concentration) ([1]; timepoint 2 h): 1.788 | Tube 2 (compound concentration) ([1]; timepoint 2 h): 1.757 | Tube 3 (compound concentration) ([1]; timepoint 2 h): 1.731 | Mean (compound concentration) ([1]; timepoint 6 h): 0.88 | Tube 1 (compound concentration) ([1]; timepoint 6 h): 0.876 | Tube 2 (compound concentration) ([1]; timepoint 6 h): 0.868 | Tube 3 (compound concentration) ([1]; timepoint 6 h): 0.883 | Tube 1 (compound concentration) ([1]; timepoint 24 h): 0.031 | Tube 2 (compound concentration) ([1]; timepoint 24 h): 0.036 | Tube 3 (compound concentration) ([1]; timepoint 24 h): 0.046 | remaining at 2 h, 10 µM ([1]; human): 68.6% | remaining at 6 h, 10 µM ([1]; human): 34.2% | half-life [1, 5]: 3.89 h | remaining at 2 h, 10 µM [2]: 85.9% | remaining at 6 h, 10 µM [2]: 65.7% | remaining at 24 h, 10 µM [2]: 23.9% | Conc. (% of T0) ([2]; timepoint 0 h): 100.0 % of T0 | Mean (compound concentration) ([2]; timepoint 0 h): 2.70 | Tube 2 (compound concentration) ([2]; timepoint 0 h): 2.705 | Tube 3 (compound concentration) ([2]; timepoint 0 h): 2.658 | Tube 1 (compound concentration) [2, 4]: 2.731 | Mean (compound concentration) ([2]; timepoint 2 h): 2.32 | Tube 1 (compound concentration) ([2]; timepoint 2 h): 2.366 | Tube 2 (compound concentration) ([2]; timepoint 2 h): 2.256 | Tube 3 (compound concentration) ([2]; timepoint 2 h): 2.33 | Mean (compound concentration) ([2]; timepoint 6 h): 1.77 | Tube 1 (compound concentration) ([2]; timepoint 6 h): 1.851 | Tube 2 (compound concentration) ([2]; timepoint 6 h): 1.679 | Tube 3 (compound concentration) ([2]; timepoint 6 h): 1.791 | Mean (compound concentration) ([2]; timepoint 24 h): 0.64 | Tube 1 (compound concentration) ([2]; timepoint 24 h): 0.637 | Tube 2 (compound concentration) ([2]; timepoint 24 h): 0.656 | Tube 3 (compound concentration) ([2]; timepoint 24 h): 0.638 | half-life [2]: 707 min | LogEC50 (anti-ALFA VHH): 0.7765 | pEC50 (anti-ALFA VHH): 8.22

CC(=O)N[C@@H](CO)C(=O)N[C@@H](CCCNC(=N)N)C(=O)N[C@@H](CC(C)C)C(=O)N[C@@H](CCC(=O)O)C(=O)N[C@@H](CCC(=O)O)C(=O)N[C@@H](CCC(=O)O)C(=O)N[C@@H](CC(C)C)C(=O)N[C@@H](CCCNC(=N)N)C(=O)N[C@H]1CCCCNC(=O)CC[C@@H](C(N)=O)NC(=O)[C@H]([C@@H](C)O)NC(=O)[C@H](CC(C)C)NC(=O)[C@H](CCCNC(=N)N)NC1=O [SD15193, Ac-Ser-Arg-Leu-Glu-Glu-Glu-Leu-Arg-(cyclo9)Lys-Arg-Leu-Thr-(cyclo13)Glu-NH2] (Ac-SRLEEELRKRLTE-NH2; lactam 9-13)
pKd (NbALFA): 10.25 | ka (NbALFA): 1.95e+07 M⁻¹ s⁻¹ | kd (NbALFA): 0.00109 s⁻¹ | Conc. (% of T0) ([1]; timepoint 0 h): 100.0 % of T0 | Mean (compound concentration) ([1]; timepoint 0 h): 2.81 | Tube 2 (compound concentration) ([1]; timepoint 0 h): 2.845 | Tube 3 (compound concentration) ([1]; timepoint 0 h): 2.795 | Tube 1 (compound concentration) [1, 4]: 2.799 | Mean (compound concentration) ([1]; timepoint 2 h): 2.71 | Tube 1 (compound concentration) ([1]; timepoint 2 h): 2.769 | Tube 2 (compound concentration) ([1]; timepoint 2 h): 2.647 | Tube 3 (compound concentration) ([1]; timepoint 2 h): 2.717 | Mean (compound concentration) ([1]; timepoint 6 h): 2.66 | Tube 1 (compound concentration) ([1]; timepoint 6 h): 2.774 | Tube 2 (compound concentration) ([1]; timepoint 6 h): 2.678 | Tube 3 (compound concentration) ([1]; timepoint 6 h): 2.527 | Mean (compound concentration) ([1]; timepoint 24 h): 2.09 | Tube 1 (compound concentration) ([1]; timepoint 24 h): 2.387 | Tube 2 (compound concentration) ([1]; timepoint 24 h): 1.983 | Tube 3 (compound concentration) ([1]; timepoint 24 h): 1.888 | remaining at 24 h, 10 µM ([1]; human, Li-heparin plasma): 74.2% | remaining at 2 h, 10 µM ([1]; human): 96.4% | remaining at 6 h, 10 µM ([1]; human): 94.5% | half-life ([1]; human, Flag (half-life, assay exceeded)): > 24 h | half-life [1, 5]: 56.1 h | remaining at 2 h, 10 µM [2]: 87.5% | remaining at 6 h, 10 µM [2]: 72.7% | remaining at 24 h, 10 µM [2]: 39.4% | Conc. (% of T0) ([2]; timepoint 0 h): 100.0 % of T0 | Mean (compound concentration) ([2]; timepoint 0 h): 3.29 | Tube 2 (compound concentration) ([2]; timepoint 0 h): 3.236 | Tube 3 (compound concentration) ([2]; timepoint 0 h): 3.311 | Tube 1 (compound concentration) [2, 4]: 3.315 | Mean (compound concentration) ([2]; timepoint 2 h): 2.88 | Tube 1 (compound concentration) ([2]; timepoint 2 h): 2.864 | Tube 2 (compound concentration) ([2]; timepoint 2 h): 2.972 | Tube 3 (compound concentration) ([2]; timepoint 2 h): 2.789 | Mean (compound concentration) ([2]; timepoint 6 h): 2.39 | Tube 1 (compound concentration) ([2]; timepoint 6 h): 2.383 | Tube 2 (compound concentration) ([2]; timepoint 6 h): 2.443 | Tube 3 (compound concentration) ([2]; timepoint 6 h): 2.346 | Mean (compound concentration) ([2]; timepoint 24 h): 1.30 | Tube 1 (compound concentration) ([2]; timepoint 24 h): 1.253 | Tube 2 (compound concentration) ([2]; timepoint 24 h): 1.397 | Tube 3 (compound concentration) ([2]; timepoint 24 h): 1.236 | half-life [2]: 1110 min | LogEC50 (anti-ALFA VHH): 0.7818 | pEC50 (anti-ALFA VHH): 8.22

CC(=O)N1CCC[C@H]1C(=O)N[C@@H](CO)C(=O)N[C@@H](CCCNC(=N)N)C(=O)N[C@@H](CC(C)C)C(=O)N[C@@H](CCC(=O)O)C(=O)N[C@H]1CCC(=O)NCCCC[C@@H](C(=O)N[C@@H](CCCNC(=N)N)C(=O)N[C@@H](CC(C)C)C(=O)N[C@H](C(=O)N[C@@H](CCC(=O)O)C(N)=O)[C@@H](C)O)NC(=O)[C@H](CCCNC(=N)N)NC(=O)[C@H](CC(C)C)NC(=O)[C@H](CCC(=O)O)NC1=O [SD15341, Ac-Pro-Ser-Arg-Leu-Glu-(cyclo6)Glu-Glu-Leu-Arg-(cyclo10)Lys-Arg-Leu-Thr-Glu-NH2] (Ac-PSRLEEELRKRLTE-NH2; lactam 6-10)
half-life ([3]; female, C57BL/6NRj, plasma, iv, 3 mg/kg): 6.69 min | area under the curve (AUC) compared to the linear alpha compound ([3]; i.v., in words): much higher | clearance compared to the linear alpha compound ([3]; i.v., in words): drastically reduced | MRT inf ([3]; in vivo, iv, 3 mg/kg): 4.5 min | MRT last ([3]; in vivo, iv, 3 mg/kg): 4.47 min | Tmax ([3]; in vivo, iv, 3 mg/kg): 1 min | clearance ([3]; in vivo, iv, 3 mg/kg): 52.8 mL/min/kg | AUC(0-inf) [3, 6]: 948 ng·h/mL | AUC(0-t) [3, 6]: 947 ng·h/mL | C0 ([3]; in vivo, iv, 3 mg/kg, C0, single i.v.): 15400 ng/mL | Cmax [3, 6]: 12700 ng/mL | Vd ([3]; in vivo, iv, 3 mg/kg, Vss, single i.v., 3 mg/kg): 0.237 L/kg | Vd ([3]; in vivo, iv, 3 mg/kg, Vz, single i.v.): 0.509 L/kg | AUC(0-inf) [3, 7]: 316 ng·h/mL | AUC(0-t) [3, 7]: 316 ng·h/mL | C0 ([3]; in vivo, iv, C0, normalized to a dose of 1 mg/kg, given 3 mg/kg i.v.): 5130 ng/mL | Cmax [3, 7]: 4240 ng/mL | AUCextra ([3]; single i.v., 3 mg/kg): 0.05% | Vc ([3]; single i.v., 3 mg/kg): 0.195 L/kg | t1/2effective ([3]; single i.v., 3 mg/kg): 3.10 min | t1/2initial ([3]; single i.v., 3 mg/kg): 2.41 min | λinitial ([3]; single i.v., 3 mg/kg): 0.29 min⁻¹ | λterminal ([3]; single i.v., 3 mg/kg): 0.10 min⁻¹ | pKd (NbALFA): 10.71 | ka (NbALFA): 1.86e+07 M⁻¹ s⁻¹ | kd (NbALFA): 0.000361 s⁻¹ | binding with respect to NbALFA (NbALFA; in words): very good binding

Ac-SRLEEELRRRLTE-NH2 [SD15197, Ac-Ser-Arg-Leu-Glu-Glu-Glu-Leu-Arg-Arg-Arg-Leu-Thr-Glu-NH2, reference compound]
pKd (NbALFA): 10.93 | ka (NbALFA): 5.05e+07 M⁻¹ s⁻¹ | kd (NbALFA): 0.000593 s⁻¹ | LogEC50 (anti-ALFA VHH): 0.4145 | pEC50 (anti-ALFA VHH): 8.59 | pEC50 (anti-ALFA VHH; listed as parent linear ALFA peptide): 8.59

— US20250154202A1, “CYCLIC EPITOPE TAGS” (BIONTECH SE, priority 2022, published 2025)
